Common to all, as to assay type: functional
Experiment [1] concerns NCI-H358. Briefly: Growth inhibition of human NCI-H358 cells grown under 3D anchorage-independent soft-agar conditions at 333 nM incubated for 14 days by alamar blue dye based assay relative to control. The note with it: NCI-H358, 336 h, read-out: GI.
Experiment [2] deals with NCI-H358. Kind of experiment: Growth inhibition of human NCI-H358 cells grown under 3D anchorage-independent soft-agar conditions at 12.3 nM incubated for 14 days by alamar blue dye based assay relative to control. Conditions: NCI-H358, 336 h, read-out: GI.
The test system of experiment [3] is NCI-H1792. Briefly: Growth inhibition of human NCI-H1792 cells grown under 3D anchorage-independent soft-agar conditions at 12.3 nM incubated for 14 days by alamar blue dye based assay relative to control. Conditions: NCI-H1792, 336 h, read-out: GI. Background: The colour change of resazurin is a common sign of viable cells or microbes.
In experiment [4] the test system is NCI-H1792. Kind of experiment: Growth inhibition of human NCI-H1792 cells grown under 3D anchorage-independent soft-agar conditions at 37 nM incubated for 14 days by alamar blue dye based assay relative to control. Conditions: NCI-H1792, 336 h, read-out: GI.
For experiment [5], the system named is NCI-H1792. Briefly: Growth inhibition of human NCI-H1792 cells grown under 3D anchorage-independent soft-agar conditions at 111 nM incubated for 14 days by alamar blue dye based assay relative to control. The note with it: NCI-H1792, 336 h, read-out: GI.
For experiment [6], the system named is NCI-H358. Briefly: Growth inhibition of human NCI-H358 cells grown under 3D anchorage-independent soft-agar conditions at 111 nM incubated for 14 days by alamar blue dye based assay relative to control. The note with it: NCI-H358, 336 h, read-out: GI.
Experiment [7] deals with NCI-H358. Kind of experiment: Growth inhibition of human NCI-H358 cells grown under 3D anchorage-independent soft-agar conditions at 37 nM incubated for 14 days by alamar blue dye based assay relative to control. Conditions: NCI-H358, 336 h, read-out: GI.
Experiment [8] concerns NCI-H358. Kind of experiment: Growth inhibition of human NCI-H358 cells grown under 3D anchorage-independent soft-agar conditions at 1000 nM incubated for 14 days by alamar blue dye based assay relative to control. The note with it: NCI-H358, 336 h, read-out: GI.
Experiment [9] relates to NCI-H1792. Briefly: Growth inhibition of human NCI-H1792 cells grown under 3D anchorage-independent soft-agar conditions at 333 nM incubated for 14 days by alamar blue dye based assay relative to control. The note with it: NCI-H1792, 336 h, read-out: GI.
The test system of experiment [10] is NCI-H1792. Kind of experiment: Growth inhibition of human NCI-H1792 cells grown under 3D anchorage-independent soft-agar conditions at 1000 nM incubated for 14 days by alamar blue dye based assay relative to control. The note with it: NCI-H1792, 336 h, read-out: GI.
Experiment [11] deals with PC-9. Kind of experiment: Growth inhibition of human PC9 cells grown under 3D anchorage-independent soft-agar conditions at 3.33 nM incubated for 14 days by alamar blue dye based assay relative to control. Conditions: PC-9, 336 h, read-out: GI.
The subject of experiment [12] is PC-9. Kind of experiment: Growth inhibition of human PC9 cells grown under 3D anchorage-independent soft-agar conditions at 0.123 nM incubated for 14 days by alamar blue dye based assay relative to control. Conditions: PC-9, 336 h, read-out: GI.
In experiment [13] the test system is PC-9. Briefly: Growth inhibition of human PC9 cells grown under 3D anchorage-independent soft-agar conditions at 10 nM incubated for 14 days by alamar blue dye based assay relative to control. Conditions: PC-9, 336 h, read-out: GI.
Experiment [14] relates to PC-9. Briefly: Growth inhibition of human PC9 cells grown under 3D anchorage-independent soft-agar conditions at 1.11 nM incubated for 14 days by alamar blue dye based assay relative to control. Conditions: PC-9, 336 h, read-out: GI.
For experiment [15], the system named is PC-9. Briefly: Growth inhibition of human PC9 cells grown under 3D anchorage-independent soft-agar conditions at 0.37 nM incubated for 14 days by alamar blue dye based assay relative to control. The note with it: PC-9, 336 h, read-out: GI.

As for `C=CC(=O)N1CCN(c2ncnc3c(F)c(-c4cc(O)cc5ccccc45)c(Cl)cc23)CC1`, the values for the inhibition of growth at 0.333 µM with NCI-H358 [1] and in the experiment on NCI-H1792 [9] were 139% and 46%, respectively. Further, the inhibition of growth at 0.0123 µM in the experiment with NCI-H358 [2] was determined as 17%; in the experiment on NCI-H1792 [3], 5%. Moreover, the inhibition of growth at 0.037 µM with NCI-H1792 [4] was found to be 29%; in the experiment with NCI-H358 [7], 47%. Further, the inhibition of growth at 0.111 µM in the experiment on NCI-H1792 [5] worked out at 42%; in the experiment with NCI-H358 [6], 87%. Moreover, the inhibition of growth at 1 µM in the experiment with NCI-H358 [8] was 180%; with NCI-H1792 [10], 81%.
In the case of `C=CC(=O)Nc1cccc(Oc2nc(Nc3ccc(N4CCN(C)CC4)cc3)nc3ccsc23)c1` [OLMUTINIB], the inhibition of growth at 0.00333 µM with PC-9 [11] amounted to 35%. For the same compound, the inhibition of growth at 0.000123 µM in the experiment with PC-9 [12] is -3%. The inhibition of growth at 0.01 µM in the experiment with PC-9 [13] was 69%. The inhibition of growth at 0.00111 µM in the experiment on PC-9 [14] turned out to be 1%. The inhibition of growth at 0.00037 µM in the experiment on PC-9 [15] was -3%.
